Test results reported in PubChem BioAssay (NCI).
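Step 1: Grow cells in 96-well plates. Step 2: Expose to compound for 48 hours at 5 concentrations. Step 3: Interpolate endpoints linearly; if unreached, use highest concentration. At the GI50, growth is halved. TGI: concentration producing complete growth inhibition.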

What was measured:
Experiment in all cases: NCI anticancer screen, dose series, 48 h
786-0 renal = system: 786-0 renal
RXF 393 renal = system: RXF 393 renal
SK-OV-3 ovarian = system: SK-OV-3 ovarian
HOP-62 NSCLC = system: HOP-62 NSCLC
SF-539 CNS = system: SF-539 CNS
NCI-H460 lung = system: NCI-H460 lung
SN12C renal = system: SN12C renal
EKVX NSCLC = system: EKVX NSCLC
NCI-H23 lung = system: NCI-H23 lung
SK-MEL-28 melanoma = system: SK-MEL-28 melanoma

Structure (SMILES)	TGI (786-0 renal)	TGI (RXF 393 renal)	TGI (SK-OV-3 ovarian)	TGI (HOP-62 NSCLC)	TGI (SF-539 CNS)	TGI (NCI-H460 lung)	TGI (SN12C renal)	GI50 (786-0 renal)	GI50 (RXF 393 renal)	GI50 (SK-OV-3 ovarian)	GI50 (HOP-62 NSCLC)	GI50 (SF-539 CNS)	GI50 (EKVX NSCLC)	TGI (EKVX NSCLC)	GI50 (NCI-H460 lung)	GI50 (NCI-H23 lung)	TGI (NCI-H23 lung)	GI50 (SK-MEL-28 melanoma)	TGI (SK-MEL-28 melanoma)	GI50 (SN12C renal)
N#CC(C#N)=c1ccc(=C2NCC3CCCN23)cc1 (centres undefined)	> 100 µM	> 100 µM	> 100 µM	> 100 µM	> 100 µM	> 100 µM	> 100 µM	–	–	–	–	–	–	–	–	–	–	–	–	–
COc1cc(C(=O)/C=C/c2sc(Cl)nc2Cl)cc(OC)c1OC	3.42 µM	3.12 µM	19.8 µM	5.6 µM	3.12 µM	5.29 µM	3.2 µM	1.84 µM	1.7 µM	6.43 µM	2.29 µM	1.72 µM	1.67 µM	3.12 µM	2.29 µM	1.64 µM	3.04 µM	1.78 µM	3.27 µM	1.74 µM
COc1ccc(-n2/c(=N/C(=S)N(C)C)ss/c2=N\C(=S)N(C)C)cc1	> 100 µM	> 100 µM	> 100 µM	> 100 µM	> 100 µM	11.2 µM	> 100 µM	–	–	–	–	–	–	> 100 µM	–	–	> 100 µM	–	> 100 µM	–
CC(=O)NC1=C(NCC(C)(C)C)C(=O)c2ccccc2C1=O	> 100 µM	> 100 µM	> 100 µM	> 100 µM	> 100 µM	> 100 µM	> 100 µM	–	–	–	–	–	–	> 100 µM	–	–	> 100 µM	–	> 100 µM	–
Cc1nc2c(nc1C)C(=O)c1ccccc1C2=O	47.1 µM	53.9 µM	82.6 µM	10.3 µM	11.2 µM	3.2 µM	6.4 µM	–	–	–	–	–	–	41.5 µM	–	–	2.59 µM	–	4.76 µM	–
O=C1NC2(CCCCC2)C2CCCCC(O)C12 (centres undefined)	> 100 µM	> 100 µM	–	> 100 µM	> 100 µM	> 100 µM	> 100 µM	–	–	–	–	–	–	> 100 µM	–	–	> 100 µM	–	> 100 µM	–
Clc1cccc(Cc2cn3cc(-c4ccccc4)nc3s2)c1Cl	> 100 µM	18.7 µM	97.6 µM	47.7 µM	> 100 µM	> 100 µM	> 100 µM	> 100 µM	3.13 µM	10.3 µM	3.9 µM	43.3 µM	–	–	> 100 µM	60.7 µM	> 100 µM	54.4 µM	> 100 µM	> 100 µM
O=c1n(CC2CO2)c(=O)n(CC2CO2)n1CC1CO1 (centres undefined)	> 83.2 µM	–	> 80.2 µM	> 35.5 µM	> 54.3 µM	30.8 µM	> 100 µM	4.78 µM	–	8.37 µM	4.7 µM	4.89 µM	32.7 µM	> 100 µM	0.416 µM	22.7 µM	> 100 µM	> 53.1 µM	> 100 µM	9.03 µM
c1cc2c(cc1NC1=NCCO1)CCC2	> 10 µM	> 10 µM	> 10 µM	> 10 µM	> 10 µM	–	> 10 µM	–	–	–	–	–	–	> 10 µM	–	–	> 10 µM	–	> 10 µM	–
CNC(=O)c1cc(Oc2ccc3nc(NC(=O)Nc4ccc(Cl)c(C(F)(F)F)c4)sc3c2)ccn1	3.4 µM	4.57 µM	4.21 µM	4.74 µM	–	–	> 100 µM	1.79 µM	1.93 µM	1.89 µM	1.94 µM	–	–	–	–	2.48 µM	8.17 µM	–	–	2.44 µM
C=CCc1cc(OC)c2c(c1)C(O)CC(c1ccc(OC)c(OC)c1)O2 (centres undefined)	> 100 µM	–	> 100 µM	> 100 µM	> 100 µM	> 100 µM	> 100 µM	–	–	–	–	–	–	> 100 µM	–	–	> 100 µM	–	> 100 µM	–
O=C(O)CCSC(=O)Nc1cccc(F)c1	> 100 µM	–	–	95.7 µM	> 100 µM	> 100 µM	> 100 µM	–	–	–	–	–	–	> 100 µM	–	–	> 100 µM	–	> 100 µM	–
O=C1/C(=C/c2ccc([N+](=O)[O-])cc2)COc2ccc(O)c(O)c21	3.59 µM	–	9.62 µM	6.34 µM	3.33 µM	3.84 µM	4.19 µM	1.35 µM	–	2.98 µM	2.57 µM	1.7 µM	1.77 µM	3.72 µM	1.74 µM	1.77 µM	3.74 µM	2.1 µM	4.61 µM	1.54 µM
NC(CCc1nc(-c2ccc(Cl)cc2)cs1)C(=O)O (centres undefined)	> 100 µM	> 100 µM	> 100 µM	> 100 µM	–	> 100 µM	> 100 µM	–	–	–	–	–	–	> 100 µM	–	–	> 100 µM	–	> 100 µM	–
CC1CN1P1(N2CC2C)=NP(N2CC2C)(N2CC2C)=NP(N2CC2C)(N2CC2C)=N1 (centres undefined)	> 50 µM	> 50 µM	> 50 µM	–	> 50 µM	> 50 µM	> 50 µM	–	–	–	–	–	–	> 50 µM	–	–	> 50 µM	–	> 50 µM	–
Nc1ccc(C(=O)N/C(=C\c2ccc3c(c2)OCO3)c2nc3[nH]c(=S)[nH]c(=O)c3[nH]2)cc1	> 100 µM	> 100 µM	> 100 µM	–	> 100 µM	–	> 100 µM	–	–	–	–	–	–	> 100 µM	–	–	> 100 µM	–	> 100 µM	–
COc1ccc(-c2cc(=O)c3ccc(O)cc3o2)c(OC)c1OC	> 100 µM	91.8 µM	> 100 µM	> 100 µM	> 100 µM	–	> 100 µM	–	–	–	–	–	–	> 100 µM	–	–	> 100 µM	–	> 100 µM	–
COc1ccccc1NC(=O)CC(=O)n1nc(C)c(N=Nc2ccccc2C(=O)O)c1C	> 100 µM	–	> 100 µM	> 100 µM	> 100 µM	> 100 µM	> 100 µM	–	–	–	–	–	–	83.5 µM	–	–	> 100 µM	–	> 100 µM	–
O=C(CSC(=S)N1CCCCC1)Nc1nc2c(s1)CCCC2	> 100 µM	–	> 100 µM	> 100 µM	> 100 µM	> 100 µM	> 100 µM	–	–	–	–	–	–	–	–	–	92.7 µM	–	> 100 µM	–
Oc1ccc(Cl)cc1-c1cc(-c2ccccc2Cl)[nH]n1	> 100 µM	–	> 100 µM	> 100 µM	–	> 100 µM	> 100 µM	> 100 µM	–	> 100 µM	19.3 µM	–	–	–	3.47 µM	4.91 µM	> 100 µM	> 100 µM	> 100 µM	6.32 µM
